This passage reports inhibition results from US20090215742A1, “AMIDE […]” (PFIZER, INC., priority 2005, published 2009).

This assay addresses T1, HSP-90 (Homo sapiens, UniProt P07900).
T1 construct: fused on or other part: 6-His tag at the C-terminus
Description: HSP-90 SPA (scintillation proximity assay) competition binding assay, displacement of tritiated propyl-Geldanamycin. The settings on record: for inhibition at 1 µM: read-out: % inhibition @ 1 μM; for inhibition at 10 µM: read-out: % inhibition @ 10 μM. The procedure:
Compounds of the present invention were evaluated for potency against HSP-90 using a SPA (scintillation proximity assay) competition binding assay. Briefly, either full length or N-terminal HSP-90 that contains a 6-His tag on its C-terminus binds to copper on Yttrium-silicate scintillant beads via the His-tag. Tritiated propyl-Geldanamycin (pGA), whose structure is shown below, is an analog of a natural inhibitor of HSP-90 called Geldanamycin.
Tritiated pGA, which contains a tritiated propyl-amine group added at the #17 position, binds HSP-90 and brings the isotope into proximity with the beads. […] The beta signal emitted from the isotope excites the scintillant, which creates a measurable signal. As competitive compounds are added to the assay mixture, they compete with bound tritiated pGA at the ATP-binding site on the N-terminal of HSP-90. When a compound displaces the labeled pGA, the signal is reduced (the beta-particles are no longer in proximity with the bead). This reduction in signal is used to quantify the extent to which the inhibitor/compound is competitive with pGA.
Typical reaction solutions contained 30 nM HSP-90 and 200 nM ^3H-pGA in binding buffer (100 mM Hepes, pH 7.5 and 150 mM KCl). […] Inhibitors were added to the HSP-90/^3H-pGA solutions at eleven different concentrations for Ki determinations. […] To determine percent inhibition, the compound was tested at 1 and 10 μM. The final DMSO in the samples was 4%. Copper-Ysi beads (Amersham, #RPNQ0096) that have been diluted in binding buffer were added to each well to give a final concentration of 100 μg/well. The plates were sealed, covered with a foil-covered lid and shaken for 30 minutes at room temperature. The beads were allowed to settle for 30 minutes after which the plates were counted using a Packard TopCount NXT instrument. This procedure has also been adapted for medium throughput using a Beckman Biomek FX. Samples were run in duplicate and on two separate days to assure an accurate value of Ki.
For Ki determinations, the corrected cpm's (actual cpm's minus background) were plotted vs. inhibitor concentration using GraphPad Prism software. […] The IC50 was then used to calculate the Ki by using the Cheng-Prusoff equation: […]
This is normally true when the observed IC50 is […] the HSP-90 concentration. For a tight binding inhibitor, the following equation can be applied: […]
EL and ELo are the radioligand-HSP-90 complexes in the presence and absence of inhibitor, respectively. EL/ELo represents the fractional signal in the presence of inhibitor. Io, Eo, and Lo are the inhibitor, HSP-90, and radioligand concentrations, respectively.
For orientation: SPA uses beads or plates that emit light when radiolabelled molecules are held near them.

Regarding `O=C(c1ccc(O)cc1O)N1CCCCC1c1cccc(F)c1` (centres unmarked) [Example 57, 4-{[2-(3-fluorophenyl)piperidin-1-yl]carbonyl}benzene-1,3-diol], the inhibition (in general, the relative decrease from the control value, in per cent) at 1 µM amounted to 73.7% and the inhibition at 10 µM came to 88.2%. For the compound `Cc1ccccc1C1CCCN1C(=O)c1ccc(O)cc1O` (centres unmarked) [Example 73, 4-{[2-(2-methylphenyl)pyrrolidin-1-yl]carbonyl}benzene-1,3-diol], the inhibition at 1 µM came out at 82.7% and the inhibition at 10 µM was found to be 91.6%.

With `CC1CCN(C(=O)c2ccc(O)cc2O)CC1` [Example 42, 4-[(4-methylpiperidin-1-yl)carbonyl]benzene-1,3-diol], the inhibition at 1 µM stood at 59.9% and the inhibition at 10 µM came out at 86.5%.

In the case of `C[C@@H](c1ccccc1)N(C)C(=O)c1ccc(O)cc1O` [Example 66, 2,4-dihydroxy-N-methyl-N-(1-phenylethyl)benzamide], the inhibition at 1 µM came out at 55.5% and the inhibition at 10 µM turned out to be 84.8%. Consider `O=C(c1ccc(O)cc1O)N1CCC(O)(c2ccc(Cl)cc2)CC1` [Example 76, 4-{[4-(4-chlorophenyl)-4-hydroxypiperidin-1-yl]carbonyl}benzene-1,3-diol], for which the inhibition at 1 µM was 48.4% and the inhibition at 10 µM was determined as 81%. For `C[C@H]([C@@H](O)c1ccccc1)N(C)C(=O)c1ccc(O)cc1O` [Example 53, 2,4-dihydroxy-N-(2-hydroxy-1-methyl-2-phenylethyl)-N-methylbenzamide], the inhibition at 1 µM is -7.8% and the inhibition at 10 µM was determined as 7.3%. As for `O=C(c1ccc(O)cc1O)N1CCOCC(Cc2ccc(Cl)c(Cl)c2)C1` (centres unmarked) [Example 99, 4-{[6-(3,4-dichlorobenzyl)-1,4-oxazepan-4-yl]carbonyl}benzene-1,3-diol], the inhibition at 1 µM came to 52.2% and the inhibition at 10 µM was 80%. As to `COCc1nccc(C2CCCN(C(=O)c3ccc(O)cc3O)C2)n1` (centres unmarked) [Example 64, 4-({3-[2-(methoxymethyl)pyrimidin-4-yl]piperidin-1-yl}carbonyl)benzene-1,3-diol], the inhibition at 1 µM was 5.9% and the inhibition at 10 µM came out at 59.2%.

With `O=C(c1ccc(O)cc1O)N1CCC(O)(c2ccc(Cl)c(C(F)(F)F)c2)CC1` [Example 78, 4-({4-[4-chloro-3-(trifluoromethyl)phenyl]-4-hydroxypiperidin-1-yl}carbonyl)benzene-1,3-diol], the inhibition at 1 µM came out at 17.7% and the inhibition at 10 µM stood at 68.1%.

In the case of `O=C(c1ccc(O)cc1O)N1CCn2cnnc2C1` [Example 136, 4-(5,6-dihydro[1,2,4]triazolo[4,3-a]pyrazin-7(8H)-ylcarbonyl)benzene-1,3-diol], the inhibition at 1 µM stood at 10.4% and the inhibition at 10 µM worked out at 47.8%.

As for `CN(Cc1ccc(Cl)cc1)C(=O)c1ccc(O)cc1O` [Example 106, N-(4-chlorobenzyl)-2,4-dihydroxy-N-methylbenzamide], the inhibition at 1 µM was found to be 26.9% and the inhibition at 10 µM turned out to be 72.4%. Turning to `CC(C)CN(C)C(=O)c1ccc(O)cc1O` [Example 39, 2,4-dihydroxy-N-isobutyl-N-methylbenzamide], the inhibition at 1 µM stood at 11.3% and the inhibition at 10 µM stood at 52.3%. Regarding `O=C(c1ccc(O)cc1O)N1CC=CCC1` [Example 97, 4-(3,6-dihydropyridin-1(2H)-ylcarbonyl)benzene-1,3-diol], the inhibition at 1 µM was 62.7% and the inhibition at 10 µM worked out at 82.6%. Take `O=C(c1ccc(O)cc1O)N1CCC2(C=Cc3cc(Cl)ccc3O2)CC1` [Example 79, 4-[(6-chloro-1′H-spiro[chromene-2,4′-piperidin]-1′-yl)carbonyl]benzene-1,3-diol]: the inhibition at 1 µM turned out to be 57.7% and the inhibition at 10 µM turned out to be 85.1%. As for `O=C(c1ccc(CO)cc1)N1Cc2ccccc2C1` [Example 184, [4-(1,3-dihydro-2H-isoindol-2-ylcarbonyl)phenyl] methanol], the inhibition at 10 µM worked out at 0%.
